The subject of the assay is RPE cell. Kind of assay: Proteolytic activity of cultured RPE cell extracts on AGE-BSA (electrophoresis, ImageQuant). The format is cell-based, bovine. Conditions: 50 ng/ml HGF. How it is done: 1×10^6 RPE cells are seeded into the 96-well microplate, containing 10% FCS in DMEM, at 37° C., supplied with 5% CO2. After incubation of 48 hrs, five sets of experiment are treated with the Dendrobii Caulis crude extract, in which each set of experiment includes two microplates for different treating time. After treating for 36 or 48 hrs, 0.01% EDTA is added into the microplate for harvesting the cells, and then the cells are suspended in the […]. Then, the cell solution is centrifuged for 5 min at 1200 rpm, and the cells are suspended back into 10 ml DEME twice. Then, the cell solution is centrifuged again, and is suspended back again with the 0.7 ml Homogenization buffer (50 mM sodium acetate buffer, pH4.5, 1 mM DTT, 0.15M NaCl, 3 mM NaN3) containing 0.1% TritonX-100. Then, the cell solution is vibrated by a sonicator for 15 sec, four cycles, for breaking the cell completely. […] The protein concentration is detected. […]
1×10^6 RPE cells are seeded into the 96-well microplate, containing 10% FCS in DMEM, at 37° C., supplied with 5% CO2. […] After treating for 36 or 48 hrs, 0.01% EDTA is added into the microplate for harvesting the cells, and then the cells are suspended in the DMEM and the cell number is counted. […]

Results on one substance are retold here after US8067039B2, “Extract of plant Dendrobii caulis and preparing process thereof” (National Yang-Ming University, priority 2003, dated 2011).

For the substance “HGF: hepatocyte growth factor, used at 50 ng/ml as comparison treatment”, where the note is “48 hours, FIG. 32”, the “proteolytic activity of cultured RPE cell vs control set” value is listed as “a little bit greater”. The “amount of AGE-BSA” value (FIG. 33) is “obviously decreased”.
